# Data taken from publication PMC7075904, “Tethered primary hepatocyte spheroids on polystyrene multi-well plates for high-throughput drug safety testing” (Scientific Reports, 2020).
# Like-named read-outs stand apart in the source and are kept apart here.
# How the values were obtained:
# hepatocytes = details: cited from earlier work
# [1] = test system: primary human hepatocytes (PHHs) spheroids on the TS-PS system; assay: Alamar Blue cell viability of PHHs tethered spheroids on PS plates (TS-PS); assay type: cell-based; details: Hepatocyte, PHHs in TS-PS, 24 hours after treatment, 3 donors
# Method: Cryopreserved PHHs were purchased commercially from Life Technologies (Carlsbad, CA, USA) and BD Biosciences (Franklin Lakes, NJ, USA). Freshly thawed cells were cultured as described[32] with daily culture media change. Hepatocytes from three different donors (three lots of commercial cells) were used for the experiments and all assays were performed after 72 hours of culture.
# Cell viability of hepatocytes was measured 24 hours after treatment with drugs using Alamar Blue cell viability assay according to manufacturer’s instructions. Drugs used for the cell viability assays (Acetaminophen, Troglitazone, Chlorpromazine and Diclofenac) were purchased from Sigma. Stock solutions of drugs were prepared in DMSO and then diluted in media to obtain desired working concentrations. Controls were treated with solvent alone (in absence of test compounds) and considered as 100% viability value.
# [2] = test system: hepatocyte tethered spheroids; assay: Inhibition of spheroid spreading/tethering (live cell imaging of spheroid diameter); assay type: cell-based; details: 24 hour live cell imaging, tethered spheroids on modified PS plates
# Method: Hepatocytes were cultured as mentioned in section 2.1 and 2.2. Once spheroid formation was observed (2–3 days after cell seeding), cells were treated with DMSO or relevant hepatotoxicants (APAP/troglitazone) at different concentrations. 24 hour live cell imaging was performed starting 2 hours after drug addition using IN Cell Analyzer 2000 Imaging System (GE Healthcare Lifesciences, Buckinghamshire, U.K.). Images were acquired every 2 hours. Images acquired at 2 hours, 8 hours, 16 hours and 24 hours were used for further analysis. Individual spheroids were identified by image segmentation using Matlab Image Processing Toolbox and Statistical Toolbox (Mathworks) and the sizes of the spheroids were determined. Density plots were acquired in R (Version 3.1.2) to show the spheroid size distribution and percentage of spheroids within a certain diameter range at different drug concentrations was plotted in Excel.
# [3] = test system: rat hepatocytes tethered spheroids on modified PS plates; assay: CellTiter-Glo 3D Cell Viability Assay on tethered spheroids with automated liquid handling; assay type: cell-based; details: 200 μM, 24 hours, rat hepatocyte tethered spheroids; DMSO-treated wells 12.32 × 10^6 RLU
# Method: Primary hepatocytes were harvested from male Wistar rats using a two-step in situ collagenase perfusion method according to protocols described previously[19],[31]. Freshly isolated rat hepatocytes were seeded onto the different substrates at a density of 1 × 10^5 cells/cm^2 in 96-well microplates and cultured in 100 μl of William’s E culture medium supplemented with 1 mg/mL bovine serum albumin (BSA), 10 ng/mL epidermal growth factor, […] insulin, 5 nM dexamethasone, 50 ng/mL linoleic acid, 100 units/mL penicillin and […]. Media was changed daily during the entire culture period. For collagen monolayer culture, neutralized 1.5 mg/ml Type I bovine collagen (Advanced BioMatrix, San Diego, CA, USA) was coated on the surface of the microplates.
# Cell attachment and tethered spheroid formation was monitored using phase contrast microscopy for a period of seven days. In addition, CellTiter-Glo 3D Cell Viability Assay (Promega, Madison, Wisconsin, USA), which determines the number of viable cells present in a 3D cell culture/spheroid by quantifying the amount of ATP present, was used to test the variability in cell attachment across the plate and adaptation of the plate to an automated liquid handling system 5 days after cells seeding. […] After that, CellTiter-Glo 3D was added to each of the wells and the relative light units (RLU) were quantified.
Compound,IC50 (hepatocytes; read-out: IC50 (conventional cell viability assays)) [µM],IC50 [1] [µM],IC50 ([2]; read-out: IC50 using changes in cellular dynamics (spheroids of diameter 90–120 μm decreased by 50% compared to untreated control)) [µM],CellTiter-Glo 3D signal (relative light units) [3],IC50 (hepatocytes; read-out: IC50 (reported)) [µM],IC50 ([2]; read-out: Concentration at which spheroids of diameter 90–120 μm decreased by 50% compared to untreated control) [µM]
CC(=O)Nc1ccc(O)cc1 [Acetaminophen],8000 to 40000,50000,5000,–,–,–
CN(C)CCCN1c2ccccc2Sc2ccc(Cl)cc21 [Chlorpromazine],–,122,–,1.55 × 10^4 RLU,–,–
O=C(O)Cc1ccccc1Nc1c(Cl)cccc1Cl [Diclofenac],–,4000,–,–,–,–
Cc1c(C)c2c(c(C)c1O)CCC(C)(COc1ccc(CC3SC(=O)NC3=O)cc1)O2 (stereo not drawn) [Troglitazone],–,100,–,–,140,10
